Several values for one entry are separate records, joined by “and”; a condition that tells them apart may be missing. Equal values may be shown once.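 Five concentrations, 48 hours, 96-well plates. GI50: concentration for 50% inhibition of growth. TGI: concentration producing complete growth inhibition.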
What was measured:
Assay in all cases: growth of human tumour cells (NCI), 48 h
HOP-92 NSCLC = test system: HOP-92 NSCLC
LOX IMVI melanoma = test system: LOX IMVI melanoma
MDA-MB-435 = test system: MDA-MB-435
NCI-H226 lung = test system: NCI-H226 lung
NCI-H23 lung = test system: NCI-H23 lung
OVCAR-8 ovarian = test system: OVCAR-8 ovarian
RXF 393 renal = test system: RXF 393 renal
SR leukemia = test system: SR leukemia
SW-620 colon = test system: SW-620 colon
TK-10 renal = test system: TK-10 renal

SMILES	GI50 (HOP-92 NSCLC)	TGI (HOP-92 NSCLC)	GI50 (LOX IMVI melanoma)	TGI (LOX IMVI melanoma)	GI50 (MDA-MB-435)	TGI (MDA-MB-435)	GI50 (NCI-H226 lung)	TGI (NCI-H226 lung)	GI50 (NCI-H23 lung)	TGI (NCI-H23 lung)	GI50 (OVCAR-8 ovarian)	TGI (OVCAR-8 ovarian)	GI50 (RXF 393 renal)	TGI (RXF 393 renal)	GI50 (SR leukemia)	TGI (SR leukemia)	TGI (SW-620 colon)	TGI (TK-10 renal)	GI50 (SW-620 colon)	GI50 (TK-10 renal)
COc1ccc(C[C@H](N)C(=O)N[C@@H]2[C@@H](CO)OC(n3cnc4c(N(C)C)ncnc43)[C@@H]2O)cc1 (stereo partly specified)	0.12 µM	0.51 µM	0.202 µM	0.839 µM	0.214 µM	0.809 µM	0.497 µM	1.27 µM	0.553 µM	1.82 µM	0.276 µM	1.13 µM	0.216 µM	0.831 µM	0.17 µM	1.32 µM	0.792 µM	1.38 µM		
O=C1C(=O)c2c(ccc3ccccc23)-c2ccccc21	1.91 µM	5.52 µM	1.38 µM	3.93 µM	1.59 µM	3.52 µM	2.02 µM	5.02 µM	1.76 µM	4.63 µM	2.11 µM	7.98 µM	1.68 µM	3.22 µM	2.69 µM	> 100 µM	4.23 µM	7.54 µM	1.96 µM	2.17 µM
CC(C)(CCc1nc2ccccc2[nH]1)C(=O)O		> 100 µM		> 100 µM		> 100 µM		> 100 µM		> 100 µM		> 100 µM		> 100 µM		> 100 µM	> 100 µM	> 100 µM		
O=C1OC(c2ccccc2)=N/C1=C\c1ccc(N(CCCl)CCCl)cc1		> 84.6 µM		> 100 µM		> 100 µM		> 100 µM		> 100 µM		> 100 µM		> 100 µM		> 69.7 µM	> 100 µM	> 100 µM		
CC(=O)OC1CCC2(C)C(=CCC3C4CC(CN5CC5)C(=O)C4(C)CCC32)C1 (stereo unspecified)	11.3 µM	24.1 µM	6.58 µM	18.2 µM	14.8 µM	28.4 µM	14.8 µM	40.2 µM	14 µM	30 µM	12.2 µM	26.2 µM	9.77 µM	24.1 µM	3.39 µM	13.5 µM	13.3 µM	3.82 µM	3.17 µM	1.89 µM
O=C(NCc1cccnc1)c1ccc([N+](=O)[O-])o1	> 17.2 µM	32.2 µM	1.2 µM	6.58 µM	1.03 µM	4.06 µM	4.21 µM	13.2 µM	2.26 µM	6.85 µM	2.37 µM	14.5 µM	1.15 µM	5.12 µM	1.24 µM	> 32.5 µM	5.58 µM	10.4 µM	1.47 µM	3.33 µM
CCn1c(SC)nnc1-c1cc2c([nH]c3ccccc32)c(-c2cccc(O)c2)n1	1.1 µM	9.08 µM	2.51 µM	29.1 µM	0.248 µM	0.851 µM	1.91 µM	4.9 µM	4.51 µM	50.6 µM	3.62 µM	24.5 µM	1.14 µM	3.18 µM	0.34 µM	> 100 µM	> 100 µM	13.1 µM	1.44 µM	2.68 µM
Cc1c(-c2ccc(N3CCc4cccc(C(=O)Nc5nc6ccccc6s5)c4C3)nc2C(=O)O)cnn1CC12CC3CC(CC(C3)C1)C2	< 0.01 µM	< 0.01 µM	5.92 µM	23.4 µM	6.77 µM	28.3 µM	13.7 µM	50.6 µM	13.4 µM	35.4 µM	7.49 µM	33 µM	0.0853 µM	4.61 µM	12.8 µM	> 57.4 µM	37.1 µM	13.5 µM	8.54 µM	2.99 µM
COC(=O)/C(=C/c1ccc(OC)cc1)c1cc(OC)c(OC)c(OC)c1		> 55.9 µM		> 100 µM		0.477 µM		42.3 µM		26.8 µM		> 100 µM		3.38 µM		> 19.6 µM	> 100 µM	> 100 µM		
CN1CCN(Cc2ccc(NC(=O)c3cncc(C#Cc4cnc5cccnn45)c3)cc2C(F)(F)F)CC1	0.492 µM	3.13 µM	1.07 µM	2.98 µM	1.13 µM	3.76 µM	0.286 µM	2.48 µM	0.892 µM	2.32 µM	1.66 µM	6.3 µM	0.783 µM	1.71 µM	1.39 µM	17.6 µM	4.34 µM	6.03 µM	0.981 µM	1.88 µM
Nc1ccc(N)c2c1C(=O)c1cccc([N+](=O)[O-])c1C2=O	16.3 µM	> 100 µM	1.84 µM	> 100 µM	6.3 µM	> 100 µM	0.312 µM		0.44 µM	2.73 µM	2.67 µM	19.7 µM	7.16 µM	54.9 µM	0.529 µM	> 20.6 µM	> 100 µM	> 71.8 µM	2.41 µM	3.21 µM
O=C(c1ccccc1)c1ccc(N2C(=O)C3C4c5ccccc5C(/C=C/C(=O)c5ccccn5)(c5ccccc54)C3C2=O)cc1 (stereo unspecified)	1.8 µM	7.13 µM	1.56 µM	3.51 µM	2.9 µM	9.22 µM	2.06 µM	4.48 µM	2.05 µM	5.09 µM	2.56 µM	> 100 µM	1.56 µM	3.07 µM	1.37 µM	> 100 µM	> 100 µM	> 100 µM	2.82 µM	6.68 µM
C/C(=N\NC(=O)c1ccncc1)c1ccccc1O	2.27 µM	> 100 µM	1.46 µM	> 100 µM	6.37 µM	> 100 µM	6.27 µM	> 100 µM	4.34 µM	> 100 µM	3.05 µM	> 100 µM	8.15 µM	> 100 µM	1.8 µM	> 100 µM	> 100 µM	> 100 µM	5.27 µM	3.03 µM
Cc1ccc(S(=O)(=O)NCc2cccc([N+](=O)[O-])c2)cc1		> 100 µM		> 100 µM		> 100 µM		> 100 µM		> 100 µM		> 100 µM		> 100 µM		> 100 µM	> 100 µM	> 100 µM		
CCNc1nc(-c2ccc(Cl)c(OC)c2)c(-c2ccnc(NCCNS(=O)(=O)c3ccc(Cl)cc3)n2)s1	2.64 µM	9.58 µM	2.32 µM	5.69 µM	3.02 µM	40.6 µM	2.81 µM	14.3 µM	3.5 µM	> 100 µM	3.88 µM	> 100 µM	2 µM	5.1 µM	2.7 µM	7.51 µM	> 100 µM	41.8 µM	4.22 µM	4.09 µM
COc1cc(/C=C/C(=O)c2c(-c3ccc(Cl)cc3)nc3sc(C)nn23)cc(OC)c1OC	3.48 µM	25.1 µM	18.4 µM	> 100 µM	12.1 µM	> 100 µM	23.7 µM	> 100 µM	24.8 µM	> 100 µM	5.62 µM	> 100 µM	17.3 µM	> 100 µM	4.9 µM	> 100 µM	> 100 µM	> 100 µM	10.2 µM	27.1 µM
Cc1c(N)nc(C2CC(=O)N2CC(N)C(N)=O)nc1C(=O)NC(C(=O)NC(C)C(O)C(C)C(=O)NC(C(=O)NCCc1nc(-c2nc(C(=O)NCCNCC(C)O)cs2)cs1)C(C)O)C(OC1OC(CO)C(O)C(O)C1OC1OC(CO)C(O)C(OC(N)=O)C1O)c1cnc[nH]1 (stereo unspecified)		9.68 µM	0.712 µM	9.28 µM and 8.16 µM		36.4 µM		0.261 µM	1.06 µM	16.3 µM and 8.81 µM	6.97 µM	50 µM and > 100 µM		0.425 µM	0.005 µM	50 µM	> 50 µM	50 µM and > 100 µM	> 50 µM	11.1 µM
Oc1ccc(/C=N/Nc2nnc(N/N=C/c3ccc(O)cc3O)c3ccccc23)c(O)c1	0.496 µM	2.65 µM	0.277 µM	0.871 µM and 1.5 µM	0.587 µM	3.67 µM	1.92 µM	6.98 µM	0.707 µM	2.77 µM	0.494 µM		0.519 µM	2.4 µM	0.205 µM	0.592 µM and 0.719 µM	7.71 µM	9.18 µM		0.526 µM
CC(=O)Nc1ccc(C(=O)COc2cccc(/C=C3\CCc4ccccc4C3=O)c2)cc1	15.1 µM	60.9 µM	6.59 µM	25.4 µM	5.58 µM	30 µM	16.3 µM	> 100 µM	14.4 µM	43.4 µM	23.6 µM	> 100 µM	24.8 µM	57.8 µM	0.0802 µM	16.7 µM	15 µM	> 100 µM	3.65 µM	28.2 µM
Cn1c(=O)c(Oc2ccc(F)cc2F)cc2cnc(NC3CCC(O)CC3)nc21 (stereo unspecified)	0.779 µM	19.3 µM	> 25 µM	> 25 µM	> 25 µM	> 25 µM	> 25 µM	> 25 µM	> 25 µM	> 25 µM	> 25 µM	> 25 µM	> 25 µM	> 25 µM	> 25 µM	> 25 µM	> 25 µM	> 25 µM	> 25 µM	24.6 µM
CCC(=C(c1ccc(OCCN(CC)CC)cc1)c1ccc(OCCN(CC)CC)cc1)c1ccc(Cl)cc1	0.5 µM	1.18 µM	0.55 µM	1.03 µM	0.578 µM	1.07 µM	0.679 µM	1.48 µM	0.652 µM	1.41 µM	0.685 µM	1.51 µM	0.485 µM	0.962 µM	0.249 µM	0.981 µM	1.12 µM	1.1 µM	0.572 µM	0.528 µM
OCCn1c(-c2ccncc2)c(-c2ccc(F)cc2)c2ncccc21	9.5 µM	> 25 µM	> 25 µM	> 25 µM	> 25 µM	> 25 µM	> 25 µM	> 25 µM	> 25 µM	> 25 µM	> 25 µM	> 25 µM	> 25 µM	> 25 µM	> 25 µM	> 25 µM	> 25 µM	> 25 µM	> 25 µM	> 25 µM

From PubChem BioAssay (NCI)
